Data published in PubChem BioAssay AID1963421 (Molecular Pharmacology Branch, DTP, NCI, 2024).

Test system: 519858-162-T-J1-PDC complex spheroid growth, % test/control
Assay: Anticancer human tumor 519858-162-T-J1-PDC patient-derived colon adenocarcinoma cell line growth inhibition [Asc]
Conditions: for IC50: curve of first compound; for viability, T/C: stronger effect = lower value
How it was run: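 Complex spheroids combining tumor cells with HUVEC endothelial cells and human MSCs, at 37 degrees C, 5% CO2; agents tested alone or combined, half-log dilutions from at or near clinical Cmax, or 10 microM if Cmax unknown.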

[1] = second compound 0.0316 µM, first compound 0.0316 µM
[2] = second compound 0.0316 µM, first compound 0.1 µM
[3] = second compound 0.0316 µM, first compound 0.316 µM
[4] = second compound 0.0316 µM, first compound 1 µM
[5] = second compound 0.1 µM, first compound 0.0316 µM
[6] = second compound 0.1 µM, first compound 0.1 µM
[7] = second compound 0.1 µM, first compound 0.316 µM
[8] = second compound 0.1 µM, first compound 1 µM
[9] = second compound 0.316 µM, first compound 0.0316 µM
[10] = second compound 0.316 µM, first compound 0.1 µM
[11] = second compound 0.316 µM, first compound 0.316 µM
[12] = second compound 0.316 µM, first compound 1 µM
[13] = second compound 1 µM, first compound 0.0316 µM
[14] = second compound 1 µM, first compound 0.1 µM
[15] = second compound 1 µM, first compound 0.316 µM
[16] = second compound 1 µM, first compound 1 µM
[17] = second compound 3.16 µM, first compound 0.0316 µM
[18] = second compound 3.16 µM, first compound 0.1 µM
[19] = second compound 3.16 µM, first compound 0.316 µM
[20] = second compound 3.16 µM, first compound 1 µM
[21] = second compound 10 µM, first compound 0.0316 µM
[22] = second compound 10 µM, first compound 0.1 µM
[23] = second compound 10 µM, first compound 0.316 µM
[24] = second compound 10 µM, first compound 1 µM
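Note: seven day drug exposure begun three days after spheroid seeding.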
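Throughout, for viability, T/C: 100% = DMSO vehicle wells and lower values mean less viable spheroid.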

**Q.** What does the source list for `C#Cc1c(F)ccc2cc(O)cc(-c3ncc4c(N5CC6CCC(C5)N6)nc(OCC56CCCN5CC(F)C6)nc4c3F)c12` (stereo unspecified) + Cc1c(S(C)(=O)=O)c(-c2cc(F)cc(N3CCN(c4ccc(NS(=O)(=O)c5ccc(NC(CCN6CCC(C(=O)OCCCP(=O)(O)O)CC6)CSc6ccccc6)c(S(=O)(=O)C(F)(F)F)c5)cc4)CC3)c2)c(-c2ccc(Cl)cc2)n1C(C)C?
**A.** IC50 (second compound 0.0316 µM): > 10000 nM; IC50 (second compound 0.1 µM): > 10000 nM; IC50 (second compound 0.316 µM): > 10000 nM; IC50 (second compound 1 µM): > 10000 nM; IC50 (second compound 3.16 µM): > 10000 nM; IC50 (second compound 10 µM): > 10000 nM; viability, T/C [1]: 117%; viability, T/C [2]: 88.2%; viability, T/C [3]: 89.7%; viability, T/C [4]: 89.5%; viability, T/C (second compound 0.0316 µM, first compound 3.16 µM): 81.6%; viability, T/C (second compound 0.0316 µM, first compound 10 µM): 83.9%; viability, T/C [5]: 60.5%; viability, T/C [6]: 109%; viability, T/C [7]: 105%; viability, T/C [8]: 99.7%; viability, T/C (second compound 0.1 µM, first compound 3.16 µM): 87.1%; viability, T/C (second compound 0.1 µM, first compound 10 µM): 89.6%; viability, T/C [9]: 88.2%; viability, T/C [10]: 88.3%; viability, T/C [11]: 82.6%; viability, T/C [12]: 77.3%; viability, T/C (second compound 0.316 µM, first compound 3.16 µM): 64.6%; viability, T/C (second compound 0.316 µM, first compound 10 µM): 56.9%; viability, T/C [13]: 84.4%; viability, T/C [14]: 75.1%; viability, T/C [15]: 84%; viability, T/C [16]: 58.2%; viability, T/C (second compound 1 µM, first compound 3.16 µM): 78.7%; viability, T/C (second compound 1 µM, first compound 10 µM): 82.7%; viability, T/C [17]: 70.6%; viability, T/C [18]: 79.9%; viability, T/C [19]: 58.9%; viability, T/C [20]: 57.3%; viability, T/C (second compound 3.16 µM, first compound 3.16 µM): 95.8%; viability, T/C (second compound 3.16 µM, first compound 10 µM): 67.8%; viability, T/C [21]: 62.9%; viability, T/C [22]: 66.2%; viability, T/C [23]: 65.9%; viability, T/C [24]: 56.6%; viability, T/C (second compound 10 µM, first compound 3.16 µM): 60.1%; viability, T/C (second compound 10 µM, first compound 10 µM): 77.5%

**Q.** With `CNC(C)C(=O)NC1CN(S(=O)(=O)c2cccc(S(=O)(=O)N3CCC4CCC(C(=O)NC(c5ccccc5)c5ccccc5)N4C(=O)C(NC(=O)C(C)NC)C3)c2)CCC2CCC(C(=O)NC(c3ccccc3)c3ccccc3)N2C1=O` (stereo unspecified) + Cc1c(S(C)(=O)=O)c(-c2cc(F)cc(N3CCN(c4ccc(NS(=O)(=O)c5ccc(NC(CCN6CCC(C(=O)OCCCP(=O)(O)O)CC6)CSc6ccccc6)c(S(=O)(=O)C(F)(F)F)c5)cc4)CC3)c2)c(-c2ccc(Cl)cc2)n1C(C)C as the molecule, how does the IC50 (second compound 0.0316 µM) read?
**A.** Its IC50 is > 1000 nM.

**Q.** What about the IC50 (second compound 0.1 µM) of the same molecule?
**A.** The IC50 was > 1000 nM.

**Q.** And the IC50 (second compound 0.316 µM)?
**A.** The IC50 was > 1000 nM.

**Q.** And the IC50 (second compound 1 µM)?
**A.** The IC50 was > 1000 nM.

**Q.** What about the IC50 (second compound 3.16 µM) of the same molecule?
**A.** The IC50 was > 1000 nM.

**Q.** What about the IC50 (second compound 10 µM) of the same molecule?
**A.** The IC50 was 506 nM.

**Q.** What about the viability, T/C (second compound 0.0316 µM, first compound 0.00316 µM) of the same molecule?
**A.** Its viability, T/C is 92.5%.

**Q.** And the viability, T/C (second compound 0.0316 µM, first compound 0.01 µM)?
**A.** The viability, T/C was 110%.

**Q.** What about the viability, T/C [1] of the same molecule?
**A.** The viability, T/C was 45%.

**Q.** And the viability, T/C [2]?
**A.** The viability, T/C was 110%.

**Q.** What about the viability, T/C [3] of the same molecule?
**A.** The viability, T/C was 81.5%.

**Q.** What about the viability, T/C [4] of the same molecule?
**A.** The viability, T/C was 81.5%.

**Q.** What about the viability, T/C (second compound 0.1 µM, first compound 0.00316 µM) of the same molecule?
**A.** Its viability, T/C is 113%.

**Q.** What about the viability, T/C (second compound 0.1 µM, first compound 0.01 µM) of the same molecule?
**A.** Its viability, T/C is 117%.

**Q.** And the viability, T/C [5]?
**A.** The viability, T/C was 124%.

**Q.** And the viability, T/C [6]?
**A.** Its viability, T/C is 90%.

**Q.** And the viability, T/C [7]?
**A.** Its viability, T/C is 76.7%.

**Q.** What about the viability, T/C [8] of the same molecule?
**A.** Its viability, T/C is 97.5%.

**Q.** What about the viability, T/C (second compound 0.316 µM, first compound 0.00316 µM) of the same molecule?
**A.** Its viability, T/C is 104%.

**Q.** And the viability, T/C (second compound 0.316 µM, first compound 0.01 µM)?
**A.** Its viability, T/C is 107%.

**Q.** And the viability, T/C [9]?
**A.** The viability, T/C was 86.8%.

**Q.** And the viability, T/C [10]?
**A.** The viability, T/C was 78.5%.

**Q.** And the viability, T/C [11]?
**A.** Its viability, T/C is 72.3%.

**Q.** And the viability, T/C [12]?
**A.** The viability, T/C was 87.1%.

**Q.** And the viability, T/C (second compound 1 µM, first compound 0.00316 µM)?
**A.** Its viability, T/C is 102%.

**Q.** And the viability, T/C (second compound 1 µM, first compound 0.01 µM)?
**A.** Its viability, T/C is 100%.

**Q.** What about the viability, T/C [13] of the same molecule?
**A.** Its viability, T/C is 83.6%.

**Q.** What about the viability, T/C [14] of the same molecule?
**A.** Its viability, T/C is 93%.

**Q.** What about the viability, T/C [15] of the same molecule?
**A.** The viability, T/C was 96.5%.

**Q.** What about the viability, T/C [16] of the same molecule?
**A.** The viability, T/C was 68.9%.

**Q.** And the viability, T/C (second compound 3.16 µM, first compound 0.00316 µM)?
**A.** The viability, T/C was 86.9%.

**Q.** What about the viability, T/C (second compound 3.16 µM, first compound 0.01 µM) of the same molecule?
**A.** The viability, T/C was 93%.

**Q.** What about the viability, T/C [17] of the same molecule?
**A.** The viability, T/C was 95.7%.

**Q.** What about the viability, T/C [18] of the same molecule?
**A.** The viability, T/C was 82.5%.

**Q.** And the viability, T/C [19]?
**A.** The viability, T/C was 66.8%.

**Q.** And the viability, T/C [20]?
**A.** The viability, T/C was 75%.

**Q.** And the viability, T/C (second compound 10 µM, first compound 0.00316 µM)?
**A.** Its viability, T/C is 60.5%.

**Q.** And the viability, T/C (second compound 10 µM, first compound 0.01 µM)?
**A.** Its viability, T/C is 63.2%.

**Q.** And the viability, T/C [21]?
**A.** The viability, T/C was 70.2%.

**Q.** What about the viability, T/C [22] of the same molecule?
**A.** The viability, T/C was 49%.

**Q.** What about the viability, T/C [23] of the same molecule?
**A.** The viability, T/C was 63.1%.

**Q.** What about the viability, T/C [24] of the same molecule?
**A.** The viability, T/C was 33.9%.

**Q.** Which results are given for `Cc1nc(N2CCC3(CC2)COC(C)C3N)c(CO)nc1Sc1ccnc(N)c1Cl` (stereo unspecified) + Cc1c(S(C)(=O)=O)c(-c2cc(F)cc(N3CCN(c4ccc(NS(=O)(=O)c5ccc(NC(CCN6CCC(C(=O)OCCCP(=O)(O)O)CC6)CSc6ccccc6)c(S(=O)(=O)C(F)(F)F)c5)cc4)CC3)c2)c(-c2ccc(Cl)cc2)n1C(C)C?
**A.** IC50 (second compound 0.0316 µM): 2100 nM; IC50 (second compound 0.1 µM): 823 nM; IC50 (second compound 0.316 µM): > 3000 nM; IC50 (second compound 1 µM): > 3000 nM; IC50 (second compound 3.16 µM): > 3000 nM; IC50 (second compound 10 µM): > 3000 nM; viability, T/C (second compound 0.0316 µM, first compound 0.00949 µM): 90.4%; viability, T/C (second compound 0.0316 µM, first compound 0.03 µM): 106%; viability, T/C (second compound 0.0316 µM, first compound 0.0949 µM): 47.1%; viability, T/C (second compound 0.0316 µM, first compound 0.3 µM): 73.5%; viability, T/C (second compound 0.0316 µM, first compound 0.949 µM): 68%; viability, T/C (second compound 0.0316 µM, first compound 3 µM): 39.9%; viability, T/C (second compound 0.1 µM, first compound 0.00949 µM): 109%; viability, T/C (second compound 0.1 µM, first compound 0.03 µM): 105%; viability, T/C (second compound 0.1 µM, first compound 0.0949 µM): 78.5%; viability, T/C (second compound 0.1 µM, first compound 0.3 µM): 63.9%; viability, T/C (second compound 0.1 µM, first compound 0.949 µM): 47.3%; viability, T/C (second compound 0.1 µM, first compound 3 µM): 43.6%; viability, T/C (second compound 0.316 µM, first compound 0.00949 µM): 81.5%; viability, T/C (second compound 0.316 µM, first compound 0.03 µM): 92.9%; viability, T/C (second compound 0.316 µM, first compound 0.0949 µM): 68%; viability, T/C (second compound 0.316 µM, first compound 0.3 µM): 101%; viability, T/C (second compound 0.316 µM, first compound 0.949 µM): 68.4%; viability, T/C (second compound 0.316 µM, first compound 3 µM): 50.5%; viability, T/C (second compound 1 µM, first compound 0.00949 µM): 92.5%; viability, T/C (second compound 1 µM, first compound 0.03 µM): 68.5%; viability, T/C (second compound 1 µM, first compound 0.0949 µM): 52.5%; viability, T/C (second compound 1 µM, first compound 0.3 µM): 75.5%; viability, T/C (second compound 1 µM, first compound 0.949 µM): 43.2%; viability, T/C (second compound 1 µM, first compound 3 µM): 53.7%; viability, T/C (second compound 3.16 µM, first compound 0.00949 µM): 71.4%; viability, T/C (second compound 3.16 µM, first compound 0.03 µM): 95.6%; viability, T/C (second compound 3.16 µM, first compound 0.0949 µM): 67.6%; viability, T/C (second compound 3.16 µM, first compound 0.3 µM): 62.8%; viability, T/C (second compound 3.16 µM, first compound 0.949 µM): 74.8%; viability, T/C (second compound 3.16 µM, first compound 3 µM): 56.2%; viability, T/C (second compound 10 µM, first compound 0.00949 µM): 68.9%; viability, T/C (second compound 10 µM, first compound 0.03 µM): 86.4%; viability, T/C (second compound 10 µM, first compound 0.0949 µM): 61.1%; viability, T/C (second compound 10 µM, first compound 0.3 µM): 59.8%; viability, T/C (second compound 10 µM, first compound 0.949 µM): 64%; viability, T/C (second compound 10 µM, first compound 3 µM): 76.5%
